# Like-named read-outs stand apart in the source and are kept apart here.
# Columns and labels:
# Assay type in all cases: in vivo
# [1] = system: Matricaria chamomilla; assay: greenhouse post-emergence treatment, MATCH; settings: MATCH; for inhibition at 500000 µg/mL (stock): sc
# Summary of the method: (§1)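 Scale 0–100 damage rating (100 = complete destruction of above-ground parts, 0 = normal growth), read 2 to 4 weeks after post-emergence application of aqueous spray liquor to plants 3–15 cm tall.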
# [2] = system: Avena fatua; assay: greenhouse pre-emergence treatment, AVEFA; settings: Avena fatua, 480 h, 20 DAT, AVEFA
# Summary of the method: (§2)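 Damage rated on 0 to 100 scale (0 = normal growth, 100 = no emergence or total above-ground kill) after 2-4 weeks at species-dependent 10-25° C or 20-35° C. Seeds sown per species in loamy sand, ~3.0% humus, treated right after sowing with aqueous spray of single actives or 10% emulsion-concentrate mixtures, then hooded; additive expectation by Colby.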
# [3] = system: Helianthus annuus; assay: greenhouse pre-emergence treatment, HELAN; settings: Helianthus annuus, 480 h, 125 gai/ha (EC 750 g/l), 20 DAT, HELAN, Table X1, read-out: % activity, solo application
# Summary of the method: as §2
# [4] = system: Galium aparine; assay: greenhouse pre-emergence treatment, GALAP; settings: Galium aparine, 480 h, 20 DAT, GALAP
# Summary of the method: as §2
# [5] = system: Avena fatua; assay: greenhouse post-emergence treatment, AVEFA; settings: Avena fatua
# Summary of the method: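 Pot trial in loamy sand with about 3.0% humus; plants sown in place or transplanted as seedlings a few days before treatment, kept at 10-25° C or 20-35° C by species, water as solvent. Damage scored 0 (none) to 100 (full destruction) over 2 to 4 weeks; combination expectation by Colby, E=X+Y−(X·Y/100).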
# [6] = system: Polygonum convolvulus; assay: greenhouse pre-emergence treatment, POLCO; settings: Fallopia convolvulus, 480 h, 20 DAT, POLCO
# Summary of the method: as §2
# [7] = system: Apera spica-venti; assay: greenhouse post-emergence treatment, APESV; settings: APESV, 20 DAT
# Summary of the method: as §1
# [8] = system: Galium aparine; assay: greenhouse post-emergence treatment, GALAP; settings: Galium aparine, 480 h, GALAP, 20 DAT
# Summary of the method: as §1
# [9] = system: Polygonum aviculare; assay: greenhouse post-emergence treatment, POLAV; settings: Polygonum aviculare, 480 h, 20 DAT
# Protocol: The culture containers used were plastic pots containing loamy sand with approximately 3.0% of humus as substrate. The seeds of the test plants were sown separately for each species.
# For the post-emergence treatment, the test plants were grown to a plant height of from 3 to 15 cm, depending on the plant habit, and only then treated with the active compounds which had been suspended or emulsified in water. To this end, the test plants were either sown directly, and grown in the same containers, or they were first grown separately as seedlings and transplanted into the test containers a few days prior to treatment.
# Depending on the species, the plants were kept at 10-25° C. and 20-35° C., respectively.
# The test period extended over 2 to 4 weeks. During this time, the plants were tended and their response to the individual treatments was evaluated.
# Evaluation was carried out using a scale from 0 to 100. 100 means no emergence of the plants, or complete destruction of at least the above-ground parts, and 0 means no damage or normal course of growth. A good herbicidal activity is given at values of at least 70, and very good herbicidal activity is given at values of at least 85.
# The respective stated components A and B, and if appropriate, C were formulated as a 10% by weight strength emulsion concentrate and, with addition of the amount of solvent system, introduced into the spray liquor used for applying the active compound. In the examples, the solvent used was water.
# In the examples below, using the method of S. R. Colby (1967) “Calculating synergistic and antagonistic responses of herbicide combinations”, Weeds 15, p. 22ff., the value E, which is expected if the activity of the individual active compounds is only additive, was calculated. E=X+Y−(X·Y/100) where X=effect in percent using herbicide A at an application rate a; • Y=effect in percent using herbicide B at application rate b; • E=expected effect (in %) of herbicide A+herbicide B at application rates a+b.
# [10] = system: Stellaria media; assay: greenhouse pre-emergence treatment, STEME; settings: Stellaria media, 480 h, 20 DAT
# Summary of the method: as §2
# [11] = 62.5 gai/ha (EC 750 g/l), Table X1, read-out: % activity, solo application
# [12] = 125 gai/ha (EC 750 g/l), Table X1, read-out: % activity, solo application
# [13] = flufenacet SC 500 g/l solo 62.5 gai/ha, read-out: % activity
# [14] = flufenacet SC 500 g/l solo 15.6 gai/ha
# [15] = flufenacet SC 500 g/l solo 31.25 gai/ha
smiles,measurement,setting,value
CC(C)N1C(=O)c2ccccc2NS1(=O)=O [bentazon],inhibition at 30 g/ha,"[1]; Matricaria chamomilla, 480 h, 30 gai/ha (SL 480 g/l), 20 DAT, Table X3, read-out: % activity, solo application",20%
same,inhibition at 60 g/ha,"[1]; Matricaria chamomilla, 480 h, 60 gai/ha (SL 480 g/l), 20 DAT, Table X3, read-out: % activity, solo application",30%
same,pest or weed control at 30 g/ha,"[1]; Matricaria chamomilla, 480 h, bentazon solo 30 gai/ha, 20 DAT",0%
same,pest or weed control at 60 g/ha,"[1]; Matricaria chamomilla, 480 h, bentazon solo 60 gai/ha, 20 DAT",0%
same,pest or weed control at 120 g/ha,"[1]; Matricaria chamomilla, 480 h, bentazon solo 120 gai/ha, 20 DAT",0%
Cc1ccccc1CO[C@@H]1C[C@@]2(C(C)C)CC[C@]1(C)O2 (racemic) [cinmethylin],inhibition at 62.5 g/ha,[2]; [11],10%
same,inhibition at 125 g/ha,[3],10%
same,"% herbicidal activity (weed control, 0-100 scale) at 62.5 g/ha",[4]; [11],0%
same,"% herbicidal activity (weed control, 0-100 scale) at 125 g/ha",[4]; [12],20%
same,pest or weed control at 125 g/ha,"[1]; Matricaria chamomilla, 504 h, 21 DAT, solo cinmethylin (EC 750 g/l) 125 gai/ha",0%
same,% activity,"[1]; cinmethylin solo (EC 750 g/l), 125 gai/ha, 21 DAT",0%
same,pest or weed control at 125 g/ha,"[5]; 504 h, read-out: % activity",10%
same,inhibition at 31.25 g/ha,"[6]; 31.25 gai/ha (EC 750 g/l), Table X1, read-out: % activity, solo application",0%
same,inhibition at 62.5 g/ha,[6]; [11],0%
same,inhibition at 125 g/ha,[6]; [12],0%
same,inhibition at 250 g/ha,"[6]; 250 gai/ha (EC 750 g/l), Table X1, read-out: % activity, solo application",0%
CCCCCCCCSC(=O)Oc1cc(Cl)nnc1-c1ccccc1 [pyridate],% activity,[7]; solo pyridate (WP 45%) 450 gai/ha,0%
same,inhibition at 112.5 g/ha,"[7]; Apera spica-venti, 480 h, pyridate solo 112.5 gai/ha",0%
same,inhibition at 225 g/ha,"[7]; Apera spica-venti, 480 h, pyridate solo 225 gai/ha",0%
same,inhibition at 450 g/ha,"[7]; Apera spica-venti, 480 h, pyridate solo 450 gai/ha",0%
same,inhibition at 900 g/ha,"[7]; Apera spica-venti, 480 h, pyridate solo 900 gai/ha",30%
same,pest or weed control at 112.5 g/ha,[8]; solo pyridate (WP 45%) 112.5 gai/ha,40%
same,pest or weed control at 225 g/ha,[8]; solo pyridate (WP 45%) 225 gai/ha,85%
same,inhibition at 112.5 g/ha,[8]; pyridate solo 112.5 gai/ha,40%
same,inhibition at 225 g/ha,[8]; pyridate solo 225 gai/ha,85%
same,inhibition at 112.5 g/ha,"[9]; pyridate solo 112.5 gai/ha, POLAV",0%
same,inhibition at 225 g/ha,"[9]; pyridate solo 225 gai/ha, POLAV",20%
same,inhibition at 450 g/ha,"[9]; pyridate solo 450 gai/ha, POLAV",20%
same,inhibition at 900 g/ha,"[9]; pyridate solo 900 gai/ha, POLAV",30%
same,pest or weed control at 112.5 g/ha,"[1]; Matricaria chamomilla, 480 h, solo pyridate (WP 45%) 112.5 gai/ha, 20 DAT",0%
same,pest or weed control at 225 g/ha,"[1]; Matricaria chamomilla, 480 h, solo pyridate (WP 45%) 225 gai/ha, 20 DAT",0%
same,pest or weed control at 450 g/ha,"[1]; Matricaria chamomilla, 480 h, solo pyridate (WP 45%) 450 gai/ha, 20 DAT",40%
same,inhibition at 112.5 g/ha,"[1]; Matricaria chamomilla, 480 h, pyridate solo 112.5 gai/ha, 20 DAT",0%
same,inhibition at 225 g/ha,"[1]; Matricaria chamomilla, 480 h, pyridate solo 225 gai/ha, 20 DAT",0%
same,inhibition at 450 g/ha,"[1]; Matricaria chamomilla, 480 h, pyridate solo 450 gai/ha, 20 DAT",40%
same,pest or weed control at 112.5 g/ha,"[5]; 480 h, AVEFA, solo pyridate (WP 45%) 112.5 gai/ha, 20 DAT",0%
same,pest or weed control at 225 g/ha,"[5]; 480 h, AVEFA, solo pyridate (WP 45%) 225 gai/ha, 20 DAT",0%
same,pest or weed control at 450 g/ha,"[5]; 480 h, AVEFA, solo pyridate (WP 45%) 450 gai/ha, 20 DAT",10%
same,pest or weed control at 900 g/ha,"[5]; 480 h, AVEFA, solo pyridate (WP 45%) 900 gai/ha, 20 DAT",30%
same,inhibition at 112.5 g/ha,"[5]; 480 h, pyridate solo 112.5 gai/ha, 20 DAT, AVEFA",0%
same,inhibition at 225 g/ha,"[5]; 480 h, pyridate solo 225 gai/ha, 20 DAT, AVEFA",0%
same,inhibition at 450 g/ha,"[5]; 480 h, pyridate solo 450 gai/ha, 20 DAT, AVEFA",10%
CC(C)N(C(=O)COc1nnc(C(F)(F)F)s1)c1ccc(F)cc1 [flufenacet],inhibition at 62.5 g/ha,[2]; [13],60%
same,"% herbicidal activity (weed control, 0-100 scale) at 15.6 g/ha",[4]; [14],0%
same,"% herbicidal activity (weed control, 0-100 scale) at 31.25 g/ha",[4]; [15],0%
same,"% herbicidal activity (weed control, 0-100 scale) at 62.5 g/ha",[4]; [13],0%
same,"% herbicidal activity (weed control, 0-100 scale) at 125 g/ha","[4]; flufenacet SC 500 g/l solo 125 gai/ha, read-out: % activity",40%
same,inhibition at 15.6 g/ha,[10]; [14],0%
same,inhibition at 31.25 g/ha,[10]; [15],0%
same,inhibition at 62.5 g/ha,[10]; flufenacet SC 500 g/l solo 62.5 gai/ha,0%
same,inhibition at 125 g/ha,[10]; flufenacet SC 500 g/l solo 125 gai/ha,0%
same,inhibition at 62.5 g/ha,"[9]; flufenacet solo 62.5 gai/ha, read-out: % activity",0%
same,inhibition at 125 g/ha,"[9]; flufenacet solo 125 gai/ha, read-out: % activity",0%
same,inhibition at 250 g/ha,[9]; flufenacet solo 250 gai/ha,0%
same,inhibition at 500000 µg/mL (stock),"[9]; POLAV, solo flufenacet (SC 500 g/l) 250 gai/ha",0%
same,inhibition at 500000 µg/mL (stock),"[1]; Matricaria chamomilla, 480 h, 20 DAT, solo flufenacet (SC 500 g/l) 31.25 gai/ha",0%
same,inhibition at 500000 µg/mL (stock),"[1]; Matricaria chamomilla, 480 h, 20 DAT, solo flufenacet (SC 500 g/l) 62.5 gai/ha",0%
same,inhibition at 500000 µg/mL (stock),"[1]; Matricaria chamomilla, 480 h, 20 DAT, solo flufenacet (SC 500 g/l) 125 gai/ha",50%
same,inhibition at 31.25 g/ha,"[5]; 480 h, 20 DAT, flufenacet solo 31.25 gai/ha, read-out: % activity",30%
same,inhibition at 62.5 g/ha,"[5]; 480 h, 20 DAT, flufenacet solo 62.5 gai/ha",65%
same,inhibition at 125 g/ha,"[5]; 480 h, 20 DAT, flufenacet solo 125 gai/ha, read-out: % activity",65%
same,inhibition at 62.5 g/ha,"[6]; sc, flufenacet SC 500 g/l solo 62.5 gai/ha, read-out: % activity",0%
same,inhibition at 125 g/ha,"[6]; sc, flufenacet SC 500 g/l solo 125 gai/ha, read-out: % activity",0%

# Reference: patent US10966426B2, “Herbicidal compositions comprising phenylpyrimidines” (BASF SE, priority 2016, dated 2021)
